Patent US12551481B2, “Molecular targets for addiction” (The Jackson Laboratory, priority 2019, dated 2026)

System: Htr1d expression
Assay: Htr1d expression in founder strains of CC/DO mice after repeated exposure to cocaine or sham (saline)
Assay type: in vivo, mouse
Details: CAST/EiJ males and 129S1/SvlmJ males; repeated exposure over days
Text: Identification of a target for addiction treatment was undertaken using Diversity Outbred (DO) stock of mice and the eight founding inbred strains used to generate the DO stock, which are a genetically diverse collect of mice used to validate […] trait loci (QTLs) linked to disease susceptibility, drug resistance, or behavioral phenotypes (see, e.g., Saul et al., 2019, Trends in Genetics (PMID: 31133439)). DO mice were developed by random outcross mating of 160 incipient Collaborative Cross recombinant inbred mouse lines, which were created by crossing eight unique and genetically diverse inbred mouse strains. […] Upregulation after cocaine exposure was also observed in PWK/PhJ males.

## COC(=O)[C@H]1[C@@H](OC(=O)c2ccccc2)C[C@@H]2CC[C@H]1N2C [cocaine]
  Htr1d expression differences, cocaine compared to sham: 2 fold
